The target of one data set is Potassium voltage-gated channel subfamily A member 3 (Homo sapiens, UniProt P22001). In words: Inhibition of Kv1.3 expressed in mouse L929 cells exposed to depolarizing step pulses from -80 mV to +40 mV by whole cell patch clamp method. It counts as cell-based.
Potassium voltage-gated channel subfamily A member 3, sequence (P22001 whole entry): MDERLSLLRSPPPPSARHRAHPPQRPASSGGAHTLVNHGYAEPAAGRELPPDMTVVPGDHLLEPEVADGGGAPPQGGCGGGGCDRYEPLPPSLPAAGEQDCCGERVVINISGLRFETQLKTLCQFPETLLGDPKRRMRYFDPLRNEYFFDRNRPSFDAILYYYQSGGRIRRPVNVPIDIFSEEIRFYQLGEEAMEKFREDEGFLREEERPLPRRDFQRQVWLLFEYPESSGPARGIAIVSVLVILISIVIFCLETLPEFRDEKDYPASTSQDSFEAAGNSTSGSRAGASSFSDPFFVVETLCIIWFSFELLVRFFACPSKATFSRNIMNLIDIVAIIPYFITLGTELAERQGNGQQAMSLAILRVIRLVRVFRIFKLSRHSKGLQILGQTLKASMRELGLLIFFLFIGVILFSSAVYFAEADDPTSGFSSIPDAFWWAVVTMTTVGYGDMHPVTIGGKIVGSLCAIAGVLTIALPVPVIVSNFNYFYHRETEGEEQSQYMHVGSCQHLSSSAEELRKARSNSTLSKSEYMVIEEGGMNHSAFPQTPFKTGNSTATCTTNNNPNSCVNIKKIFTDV
Conditions: not given
(Patch clamp records ionic current or voltage across a cell membrane.)
In the case of `OC1CCN(CCC(c2ccccc2)c2ccccc2)CC1`, the IC50 – broadly, the concentration that inhibits the measured activity by half – came out at 75 µM.
The molecule `N#CC(CCN1CCC(N)CC1)(c1ccccc1)c1ccccc1` yielded an IC50 of over 100 µM.
`CCOC(=O)C1(c2ccccc2)CCN(CCCc2ccccc2)CC1` yielded an IC50 of 0.8 µM.
For `CCOC(=O)C1(c2ccccc2)CCN(CCC(c2ccccc2)c2ccccc2)CC1`, the IC50 came out at 0.9 µM.
The same measure, in the same setting: the figure for `N#CC(CCN1CCCC(O)C1)(c1ccccc1)c1ccccc1` (stereo not given) is over 100 µM.
`N#CC(CCN1CCN(Cc2ccccc2)CC1)(c1ccccc1)c1ccccc1`: the IC50 is 1.27 µM.
In turn, `N#CC(CCN1CCCCC1)(c1ccccc1)c1ccccc1` registered an IC50 of 20.5 µM.
As for `N#CC(CCN1CCC(O)(c2ccccc2)CC1)(c1ccccc1)c1ccccc1`, half-maximal inhibition (IC50) was put at 1.7 µM.
On to `CCOC(=O)C1CCN(CCC(C#N)(c2ccccc2)c2ccccc2)CC1`, for which 230 µM corresponded to half-maximal inhibition (IC50).
On the same count and under the same terms, the same measure for `OC1CCN(CCCc2ccccc2)CC1`: over 100 µM; for `COC1CCN(CCC(C#N)(c2ccccc2)c2ccccc2)CC1`: over 100 µM.
The same measure, in the same setting: the same measure for `CC(C)(C)OC(=O)NC1CCN(CCC(C#N)(c2ccccc2)c2ccccc2)CC1`: 25 µM; for `N#CC(CCN1CCN(c2ccccc2)CC1)(c1ccccc1)c1ccccc1`: 1.86 µM.
The molecule `CC1CCN(CCC(C#N)(c2ccccc2)c2ccccc2)CC1` had an IC50 of 5.8 µM.
Consider `N#CC(CCN1CCC(c2ccccc2)CC1)(c1ccccc1)c1ccccc1`, for which half-maximal inhibition (IC50) required 2.61 µM.
The molecule `N#CC(CCN1CCC(O)CC1)(c1ccccc1)c1ccccc1` showed an IC50 of 0.75 µM.
As for `N#CC(CCN1CC=C(c2ccccc2)CC1)(c1ccccc1)c1ccccc1`, the midpoint of inhibition, the IC50, lay at 4.2 µM.
On the same count and under the same terms, the same measure for `COC(=O)C1(c2ccccc2)CCN(CCC(C#N)(c2ccccc2)c2ccccc2)CC1`: 2.52 µM; for `CCOC(=O)C1(c2ccccc2)CCN(CCC(C#N)(c2ccccc2)c2ccccc2)CC1` [DIPHENOXYLATE]: 5 µM.

System in a further data set: not listed separately
In words: Lipophilicity, logP of the compound. It counts as physicochemical. Particulars: octanol/water.
For the molecule `O=c1ccc2c(OCCCCOc3ccccc3)c3ccoc3cc2o1`, the logP (as a rule, the decadic logarithm of the partition coefficient of the neutral form, usually between octanol and water) was found to be 4.03.

(Values after ChEMBL document CHEMBL2203233, “Structure-activity relationship exploration of Kv1.3 blockers based on diphenoxylate” (Bioorg Med Chem Lett, 2012).)
